In patent KR20170021349A, “다양한 질병의 치료를 위한 jnk 신호 전달 경로의 세포 투과성 펩타이드 억제자의 새로운 용도” (자이겐 인플라메이션 리미티드, priority 2014, dated 2017):
No end group written: not given here.

Tests used:
gerbil = settings: Carboni et al. 2004; cited from earlier work
[1] = tested on: primary embryonic cultures, PC12 cells, mice; settings: at doses inhibiting JNK activation; cited from earlier work
[2] = tested on: Sprague-Dawley albino rats; assay: Light-induced photoreceptor damage (AMD model), ERG and ONL thickness; type: in vivo, rat; settings: for a-wave recovery (% of baseline) / b-wave recovery (% of baseline): 50 mg/kg i.p. x5
C57BL/6N mice = settings: Wang et al. 2004; cited from earlier work
[3] = Phase II trial, post-surgery intraocular inflammation, vs dexamethasone eye drops; type: in vivo, human
Sprague-Dawley rats = assay: STZ diabetic nephropathy model, chronic administration; type: in vivo, rat; settings: 25 mg/kg po daily
JNK = settings: Dickens et al. 1997; cited from earlier work
TC-3 cells [4] = assay: Cellular import of fluorescein-labelled TAT and TAT-IB1(s) peptides; type: cell-based; settings: for time to enter cells: 1 μM labelled peptide
TC-3 cells [5] = assay: IL-1-induced pancreatic beta-cell apoptosis; type: cell-based; settings: 1 μM single addition
[6] = tested on: AP-1 DNA binding complex in HeLa nuclear extracts; assay: Gel retardation assay, AP-1 DNA binding complex after TNF-alpha; type: cell-based; settings: added 30 min before TNF-alpha 5 ng/ml

For `N#CC(c1ccnc(NCCc2cccnc2)n1)c1nc2ccccc2s1` (stereo not shown) [AS601245], the “protection against delayed loss of hippocampal CA1 neurons” value (gerbil) is given as “현저한 보호를 제공한다”.

In the case of `CCSCc1ccc2c(c1)c1c3c(c4c5cc(CSCC)ccc5n5c4c1n2[C@H]1C[C@](O)(C(=O)OC)[C@]5(C)O1)CNC3=O` [CEP-1347], the neuronal survival [1] is listed as “신경 생존을 촉진한다”.

In the case of `CC(C)(C)/[N+]([O-])=C/c1ccccc1` [PBN, 페닐-N-tert-부틸니트론, reference compound], the “a-wave recovery (% of baseline)” value ([2]; day 9) is reported as 70.4%, the “b-wave recovery (% of baseline)” value ([2]; day 9) is reported as 100% and the “a-wave recovery (% of baseline)” value ([2]; day 16) is reported as 79.6%. For the same compound, the “b-wave recovery (% of baseline)” value ([2]; day 16) was 103.6%, the “a-wave recovery (% of baseline)” value ([2]; day 23) was 76.2% and the “b-wave recovery (% of baseline)” value ([2]; day 23) was 102.4%. For the same compound, the “ONL thickness loss (% vs non-induced control eyes)” value ([2]; ip 50 mg/kg) was 16% and the ONL thickness ([2]; ip 50 mg/kg, day 23, p<0.05 vs vehicle) was 34.05 ± 4.00 μm.

In the case of `Oc1c2ccccc2c2c3c(cccc13)N=N2` [SP600125], the “level of c-Jun phosphorylation” value (C57BL/6N mice) is given as “c-Jun 인산화의 수준을 감소”.

With `C[C@@H]1C[C@H]2[C@@H]3CCC4=CC(=O)C=C[C@]4(C)[C@@]3(F)[C@@H](O)C[C@]2(C)[C@@]1(O)C(=O)CO` [덱사메타손, reference compound] the “AEs leading to interruption of study treatment, events (%)” value ([3]; eye drops) was 3 (5.5%), the “mild AEs, number of events (%)” value ([3]; eye drops) was 42 (76.4%) and the “moderate AEs, number of events (%)” value ([3]; eye drops) was 9 (16.4%). For the same compound, the “patients with an AE within 24 h of administration” value ([3]; eye drops) was 30%, the “patients with intraocular pressure increased” value ([3]; eye drops) was 14% and the “severe AEs, number of events (%)” value ([3]; eye drops) was 4 (7.3%). For the same compound, the “patients with rescue medication introduced” value ([3]; eye drops 1 mg/ml 4x/day 21 d) was 4.0%, the “SOC eye disorders, patients” value ([3]; eye drops (16 patients)) was 32% and the “premature withdrawal of study eye drops, patients (%)” value ([3]; eye drops (N=50)) was 3 (6.0%). For the same compound, the “patients with an adverse event” value ([3]; eye drops, 29/50) was 58%.

With `CCCCc1nc(Cl)c(CO)n1Cc1ccc(-c2ccccc2-c2nn[nH]n2)cc1` [로사르탄, 로사르탄 칼륨, reference compound] the “body weight vs vehicle-treated STZ rats” value (Sprague-Dawley rats) was “현저하게 낮았다”.

For IPSPSVEEPHKHRPTTLRLTTLGAQDS [IB2-long], the “fold more efficient than c-Jun or ATF2 in binding JNK” value (JNK) is listed as ~100 배.

With “NH2-GRKKRRQRRR-COOH (H-GRKKRRQRRR-OH) [L-TAT]” the “time to enter cells” value (TC-3 cells [4]) was < 5 분.

For “NH2-GRKKRRQRRRPPRPKRPTTLNLFPQVPRSQD-COOH (H-GRKKRRQRRRPPRPKRPTTLNLFPQVPRSQD-OH) [L-TAT-IB1(s)]”, the “time to enter cells” value (TC-3 cells [4]) was < 5 분, the “long-term protection against IL-1-induced cell death” value (TC-3 cells [5]; 15 days IL-1) was “그렇지 않았다” and the “formation of AP-1 DNA binding complex” value [6] was “감소시켰다”.

For “NH2-RRRQRRKKRG-COOH (H-RRRQRRKKRG-OH; also: D-amino acids (positions not given here)) [D-TAT]”, the stability inside cells (TC-3 cells [4]) was “극도로 안정하다” and the “time to enter cells” value (TC-3 cells [4]) was < 5 분.

In the case of “PGTGCGDTYRPKRPTTLNLFPQVPRSQDT [IB1-long]”, the “fold more efficient than c-Jun or ATF2 in binding JNK” value (JNK) is given as ~100 배.

With “TDQSRPVQPFLNLTTPRKPRYTDPPRRRQRRKKRG (also: D-amino acids (positions not given here)) [D-TAT-IB1]” the IL-1-induced apoptosis (TC-3 cells [5]; 2 days IL-1, similar extent as L-TAT-IB) was “감소시켰다”.
